Results published in patent publication US12043602B2, “Fendiline derivatives” (The Board of Regents of the University of Texas System, priority 2019, dated 2024).
Like-named read-outs stand apart in the source and are kept apart here. Each block holds one compound with its values, some of them ahead of it.

Key:
mGFP-K-RASG12V = mGFP-K-RASG12V (Homo sapiens (Human), UniProt P01116, G12V); experiment: K-Ras mislocalization assay (confocal microscopy, Manders coefficient); assay type: cell-based; set-up: key to Emax: Manders coefficient: fraction of mCherry-CAAX co-localizing with GFP-K-Ras; details: for IC50 / EC50 / Emax: MDCK cells; for IC50: 48 h treatment, read-out: IC50 (μM), KRASG12V mislocalization; for EC50: batch 4 compounds, title calls it IC50, read-out: EC50; for EC50 / Emax: 48 h; for Emax: maximal effect, Manders coefficient
Method: Madine Darby Canine Kidney epithelial cells (MDCK) stably co-expressing mGFP-tagged full length oncogenic mutant K-Ras (GFP—K-RASG12V) or mGFP-LactC2 (peptide probe for phosphatidylserine) and mCherry-tagged to the amino acids 179-189 of H-RasC181S, C184S (mCherry-CAAX, localizes primarily to endomembranes) were grown in DMEM-high glucose/sodium pyruvate/10% FBS. The medium was supplemented with 1× Penicillin/Streptomycin for fluorescence microscopy assays, to avoid any microbial contamination from the test compounds added. KLE and Hec50 cells were maintained in DMEM-F-12 medium supplemented with 10% FBS. Hec-1A and Hec-1B cells were grown in McCoy's 5a medium supplemented with 10% FBS. ESS-1 cells were grown in RPMI 1640 medium supplemented with 20% FBS. MPanc96 cells were grown in DMEM supplemented with 10% FBS, MiaPaCa-2 cells in DMEM supplemented with 10% FBS and 2.5% horse serum and all other cell lines were grown in RPMI 1640 supplemented with 10% FBS. All cancer cell media were supplemented with ×Penicillin/Streptomycin. All cell lines were grown at 37° C. with 5% CO2.
MDCK co-expressing GFP—K-RASG12V or LactC2 and mCherry-CAAX were grown on coverslips, treated with 0.1% vehicle (DMSO) or various concentrations of drugs for 48 h, and fixed with 4% paraformaldehyde. The coverslips were mounted in mowiol and imaged by confocal microscopy (Nikon A1) using a 60× objective. Using ImageJ software v1.42q, images were converted to 8-bit, and a threshold to a control pixel of each image was set. As a measure of K-Ras/LactC2 mislocalization, the fraction of mCherry-CAAX co-localizing with mGFP-K-RASG12V was calculated using a Manders coefficient plugin downloaded from Wright Cell Image Facility. The fraction of mCherry-CAAX co-localizing with mGFP-RASG12V (Mander's coefficient) is proportional to K-Ras mislocalization.

[1] = system: MDCK cells co-expressing GFP-K-RASG12V and mCherry-CAAX; experiment: Cytotoxicity in mislocalization screen (death of all cells in well); details: drug caused death of all cells in well at 30 μM

Compound: COc1ccc([C@@H](C)N(CC=C(c2ccccc2)c2ccccc2)CCN2CCC2)cc1 [NY0593, (R)-N-(2-(azetidin-1-yl)ethyl)-N-(1-(4-methoxyphenyl)ethyl)-3,3-diphenylprop-2-en-1-amine]
IC50 (mGFP-K-RASG12V): 0.5 µM
EC50 (mGFP-K-RASG12V): 492 nM
Emax (mGFP-K-RASG12V): 0.694
Emax (mGFP-K-RASG12V; listed as 12i): 0.69 ± 0.02
fold potency loss / decreased potency (mGFP-K-RASG12V; versus 12f (NY0244)): 5 fold
Cytotoxic at 30 μM [1]: Yes

Compound: C[C@H](c1ccc(F)cc1)N(CCN1CCCC1)C(=O)c1cc(-c2ccccc2)ccn1 [PW324, (R)-N-(1-(4-Fluorophenyl)ethyl)-4-phenyl-N-(2-(pyrrolidin-1-yl)ethyl)picolinamide]
IC50 (mGFP-K-RASG12V): 2.9 µM
Emax (mGFP-K-RASG12V): 0.767
Cytotoxic at 30 μM [1]: No

Compound: C[C@@H](NCCN1c2ccccc2CCc2ccccc21)c1ccc(F)cc1 [NY0552, (R)-2-(10,11-dihydro-5H-dibenzo[b,f]azepin-5-yl)-N-(1-(4-fluorophenyl)ethyl)ethan-1-amine]
EC50 (mGFP-K-RASG12V): 4050 nM
Emax (mGFP-K-RASG12V): 0.426
Cytotoxic at 30 μM [1]: No

Compound: COc1ccc([C@@H](C)N(CC=C(c2ccccc2)c2ccccc2)CCO)cc1 [NY0241, (R)-2-((3,3-diphenylallyl)(1-(4-methoxyphenyl)ethyl)amino)ethanol]
IC50 (mGFP-K-RASG12V): 0.2 µM
Emax (mGFP-K-RASG12V): 0.72 ± 0.03
Emax (mGFP-K-RASG12V; listed as 11e): 0.72
fold increase in KRAS mislocalization potency (mGFP-K-RASG12V; versus hit 7): 2.5 fold
Cytotoxic at 30 μM [1]: No
Cytotoxic at 30 μM ([1]; listed as 11e): did not show any cytotoxic

Compound: COc1ccc([C@@H](C)N(CC=C(c2ccccc2)c2ccccc2)CC(=O)N2CCN(C)CC2)cc1 [NY0232, (R)-2-((3,3-diphenylallyl)(1-(4-methoxyphenyl)ethyl)amino)-1-(4-methylpiperazin-1-yl)ethanone]
IC50 (mGFP-K-RASG12V): 1.1 µM
Emax (mGFP-K-RASG12V): 0.73 ± 0.02
Cytotoxic at 30 μM [1]: No

Compound: COc1cccc([C@@H](C)N(CC=C(c2ccccc2)c2ccccc2)CCN2CCN(C)CC2)c1 [NY0452, (R)-N-(1-(3-methoxyphenyl)ethyl)-N-(2-(4-methylpiperazin-1-yl)ethyl)-3,3-diphenylprop-2-en-1-amine]
IC50 (mGFP-K-RASG12V; listed as 15c): 2.8 µM
IC50 (mGFP-K-RASG12V): 2.81 µM
Emax (mGFP-K-RASG12V): 0.752
Emax (mGFP-K-RASG12V; listed as 15c): 0.75 ± 0.04
Cytotoxic at 30 μM [1]: Yes

Compound: C[C@H](c1ccc(F)cc1)N(CC=C(c1ccccc1)c1ccccc1)CCN1CCN(C)CC1 [NY0505, (R)-N-(1-(4-fluorophenyl)ethyl)-N-(2-(4-methylpiperazin-1-yl)ethyl)-3,3-diphenylprop-2-en-1-amine]
IC50 (mGFP-K-RASG12V): 1.5 µM
EC50 (mGFP-K-RASG12V): 1510 nM
Emax (mGFP-K-RASG12V): 0.832
Emax (mGFP-K-RASG12V; listed as 15e): 0.83 ± 0.02
Cytotoxic at 30 μM [1]: Yes

Compound: COc1ccc([C@H](C)N(CC=C(c2ccccc2)c2ccccc2)CCN2CC2)cc1 [NY0436]
IC50 (mGFP-K-RASG12V): 14 µM
Emax (mGFP-K-RASG12V): 0.716
Cytotoxic at 30 μM [1]: No

Compound: COc1ccc([C@@H](C)N(CC=C(c2ccccc2)c2ccccc2)CCN2CCN(C(=O)Oc3ccccc3)CC2)cc1 [NY353, (R)-phenyl 4-(2-((3,3-diphenylallyl)(1-(4-methoxyphenyl)ethyl)amino)ethyl) piperazine-1-carboxylate]
IC50 (mGFP-K-RASG12V): 3.26 µM
Emax (mGFP-K-RASG12V): 0.920
Cytotoxic at 30 μM [1]: No

Compound: C[C@H](c1ccc(Cl)cc1)N(CC=C(c1ccccc1)c1ccccc1)CCN1CCN(C)CC1 [NY0518, (R)-N-(1-(4-chlorophenyl)ethyl)-N-(2-(4-methylpiperazin-1-yl)ethyl)-3,3-diphenylprop-2-en-1-amine]
IC50 (mGFP-K-RASG12V): 3.8 µM
EC50 (mGFP-K-RASG12V): 3840 nM
Emax (mGFP-K-RASG12V): 0.695
Emax (mGFP-K-RASG12V; listed as 15f): 0.70 ± 0.02
Cytotoxic at 30 μM [1]: Yes

Further lines, with some results ahead:

IC50 (mGFP-K-RASG12V): 0.654 µM
Emax (mGFP-K-RASG12V): 0.696
Compound: Cc1cc(C)n(CCN(CC=C(c2ccccc2)c2ccccc2)[C@H](C)c2ccc(F)cc2)n1 [PW299, (R)-N-(2-(3,5-dimethyl-1H-pyrazol-1-yl)ethyl)-N-(1-(4-fluorophenyl)ethyl)-3,3-diphenylprop-2-en-1-amine]
Cytotoxic at 30 μM [1]: No

IC50 (mGFP-K-RASG12V): 12.5 µM
Emax (mGFP-K-RASG12V): 0.592
Compound: Nc1nccnc1C(=O)N(CC=C(c1ccccc1)c1ccccc1)CCN1CCCC1 [PW282, 3-amino-N-(3,3-diphenylallyl)-N-(2-(pyrrolidin-1-yl)ethyl)pyrazine-2-carboxamide]
Cytotoxic at 30 μM [1]: No

EC50 (mGFP-K-RASG12V): 1200 nM
Emax (mGFP-K-RASG12V): 0.327
Compound: COC(=O)[C@@H](c1ccccc1)N(CC=C(c1ccccc1)c1ccccc1)C(=O)NC(C)(C)C [NY0554, methyl (R)-2-(3-(tert-butyl)-1-(3,3-diphenylallyl)ureido)-2-phenylacetate]
Cytotoxic at 30 μM [1]: Yes (even

EC50 (mGFP-K-RASG12V): 4820 nM
Emax (mGFP-K-RASG12V): 0.842
Compound: C[C@@H](NCCN1c2ccccc2Sc2ccccc21)c1ccccc1 [NY0574, (R)-N-(2-(10H-phenothiazin-10-yl)ethyl)-1-phenylethan-1-amine]
Cytotoxic at 30 μM [1]: No

IC50 (mGFP-K-RASG12V): 2.55 µM
Emax (mGFP-K-RASG12V): 0.697
Compound: C=CC(=O)N1CCN(CCN(CC=C(c2ccccc2)c2ccccc2)[C@H](C)c2ccc(OC)cc2)CC1 [NY0357a, (R)-1-(4-(2-((3,3-diphenylallyl)(1-(4-methoxyphenyl)ethyl)amino)ethyl)piperazin-1-yl)prop-2-en-1-one]
Cytotoxic at 30 μM [1]: Yes

IC50 (mGFP-K-RASG12V): 8.45 µM
Emax (mGFP-K-RASG12V): 0.785
Compound: COc1ccc([C@@H](C)N(CC=C(c2ccccc2)c2ccccc2)S(C)(=O)=O)cc1 [NY0223, (R)-N-(3,3-diphenylallyl)-N-(1-(4-methoxyphenyl)ethyl)methanesulfonamide]
Cytotoxic at 30 μM [1]: No

EC50 (mGFP-K-RASG12V): 4370 nM
Emax (mGFP-K-RASG12V): 0.332
Compound: O=C(O)[C@H](NCC=C(c1ccccc1)c1ccccc1)c1ccccc1 [NY0555, (R)-2-((3,3-diphenylallyl)amino)-2-phenylacetic acid]
Cytotoxic at 30 μM [1]: No

IC50 (mGFP-K-RASG12V): 0.65 µM
Emax (mGFP-K-RASG12V): 0.585
Compound: C(CN1CCc2ccccc2C1)=C(c1ccccc1)c1ccccc1 [NY0221, 2-(3,3-diphenylallyl)-1,2,3,4-tetrahydroisoquinoline]
Cytotoxic at 30 μM [1]: No

Emax (mGFP-K-RASG12V): 0.705
Compound: COC(=O)CN(CC=C(c1ccccc1)c1ccccc1)[C@H](C)c1ccc(OC)cc1 [NY0228, (R)-methyl 2-((3,3-diphenylallyl)(1-(4-methoxyphenyl)ethyl)amino)acetate]
Cytotoxic at 30 μM [1]: No

EC50 (mGFP-K-RASG12V): 2180 nM
Emax (mGFP-K-RASG12V): 0.895
Compound: CCN1CCN(CCN(CC=C(c2ccccc2)c2ccccc2)[C@H](C)c2ccc(OC)cc2)CC1 [NY0589, (R)-N-(2-(4-ethylpiperazin-1-yl)ethyl)-N-(1-(4-methoxyphenyl)ethyl)-3,3-diphenylprop-2-en-1-amine]
Cytotoxic at 30 μM [1]: Yes

IC50 (mGFP-K-RASG12V): 6.39 µM
Emax (mGFP-K-RASG12V): 0.522
Compound: COc1ccc([C@@H](C)N(CC=C(c2ccccc2)c2ccccc2)CC(=O)O)cc1 [NY0229, (R)-2-((3,3-diphenylallyl)(1-(4-methoxyphenyl)ethyl)amino)acetic acid]
Cytotoxic at 30 μM [1]: No

EC50 (mGFP-K-RASG12V): 8910 nM
Emax (mGFP-K-RASG12V): 0.424
Compound: COC(=O)[C@@H](c1ccccc1)N(CC=C(c1ccccc1)c1ccccc1)CC=C(c1ccccc1)c1ccccc1 [NY055101, methyl (R)-2-(bis(3,3-diphenylallyl)amino)-2-phenylacetate]
Cytotoxic at 30 μM [1]: Yes
